The results in this text go back to ChEMBL document CHEMBL4014353, “1,2,4-Triazolo-[1,5-a]pyridine HIF Prolylhydroxylase Domain-1 (PHD-1) Inhibitors With a Novel Monodentate Binding Interaction” (J Med Chem, 2017).

The nature of series [1]: AUC (0 to t) in C57BL/6 mouse at 3 mg/kg, po administered as cassette dose. It counts as ADME, organism-based. The note with it: in vivo.
Series [2] is described as follows: Cmax in C57BL/6 mouse at 3 mg/kg, po administered as cassette dose. The series is classed as ADME, organism-based. On the set-up: dose 3 mg/kg, route oral. To be noted: in vivo.
Series [3] in a line: Oral bioavailability in C57BL/6 mouse at 3 mg/kg administered as cassette dose. The series is classed as ADME, organism-based. The note with it: in vivo.
A short description of series [4]: Clearance in C57BL/6 mouse at 0.5 mg/kg, iv administered as cassette dose. It counts as ADME, organism-based. To be noted: in vivo.
Series [5] in a line: Protein binding in mouse plasma. The series is classed as ADME, cell-free. To be noted: read-out: PPB (converted).
The nature of series [6]: Kinetic solubility of the compound by LC-UV/MS analysis. The series is classed as physicochemical. The note with it: read-out: Kinetic_solubility.
The nature of series [7]: Permeability of the compound after 5 hrs by PAMPA. The series is classed as physicochemical. The note with it: read-out: permeability. A general note: In PAMPA a lipid-coated filter parts donor from acceptor wells.
The nature of series [8]: Ratio of drug level in C57BL/6 mouse brain to plasma at 3 mg/kg, po or 0.5 mg/kg, iv administered as cassette dose. It counts as ADME, organism-based. To be noted: brain and plasma, read-out: BPR.
The nature of series [9]: Ratio of unbound brain to plasma concentration in C57BL/6 mouse at 3 mg/kg, po or 0.5 mg/kg, iv administered as cassette dose. The series is classed as ADME, organism-based. The note with it: brain and plasma, read-out: K(p,uu,brain).

≈ marks a conversion by molar mass, not a printed value.

`CC(=O)Nc1cc(-c2ccc(C#N)cc2C)n2ncnc2c1`: the area under the curve AUC(0-t) in series [1] worked out at 3660 ng·h/mL. The highest level in [2] (Cmax) was 5 µM. Further, the bioavailability in series [3] stood at 100%. Moreover, the clearance in series [4] is 17.5 mL/min/kg. In addition, in [5], the fraction unbound is 0.486. Besides, the solubility kinetic in series [6] came to 99 µM (≈ 28.8 µg/mL). In addition, the Papp at 5 h in [7] came to 2.9 ×10⁻⁶ cm/s. Besides, in series [8], the Kp was found to be 0.03. Moreover, in [9], the Kp uu turned out to be 0.02.
`N#Cc1ccc(-c2cccc3ncnn23)cc1`: the AUC(0-t) in [1] is 176 ng·h/mL. The maximum concentration (Cmax) in series [2] worked out at 0.8 µM. The bioavailability in series [3] turned out to be 40%. The clearance in series [4] stood at 108 mL/min/kg. Also, the fraction unbound in [5] is 0.287. In addition, the solubility kinetic in series [6] is 44 µM (≈ 9.69 µg/mL). For the same compound, the Papp at 5 h in series [7] was determined as 24.6 ×10⁻⁶ cm/s. In series [8], the Kp came to 0.95. Also, the Kp uu in [9] was 1.11.
Regarding `Cc1cc(C#N)ccc1-c1cc(N)cc2ncnn12`, the AUC(0-t) in series [1] turned out to be 40000 ng·h/mL. The compound further yielded a Cmax in [2] of 14.8 µM. In series [3], this compound displayed a bioavailability of 39%. The clearance in [4] was 0.48 mL/min/kg. The fraction unbound in series [5] is 0.302. In addition, the solubility kinetic in series [6] was found to be 151 µM (≈ 37.6 µg/mL). Moreover, the Papp at 5 h in [7] came out at 5.9 ×10⁻⁶ cm/s. Besides, in series [8], the Kp came to 0.21. In addition, the Kp uu in [9] came to 0.39.
In the case of `Cc1cc(C#N)ccc1-c1cccc2ncnn12`, the AUC(0-t) in series [1] came out at 1870 ng·h/mL. For the same compound, the Cmax in [2] was 5.58 µM. In addition, the bioavailability in series [3] was 100%. The same compound returned a clearance in series [4] of 31.6 mL/min/kg. Besides, the fraction unbound in series [5] is 0.21. Further, the solubility kinetic in series [6] stood at 189 µM (≈ 44.3 µg/mL). For the same compound, in series [7], the Papp at 5 h is 40.9 ×10⁻⁶ cm/s. Besides, in series [8], the Kp turned out to be 0.88. Also, the Kp uu in series [9] was found to be 1.59.

What is called AUC(0-t) is exposure summed from dosing to a finite time, without extrapolation to infinity. A high value points to more exposure. What is called Cmax is the peak of the concentration-time curve. The term bioavailability denotes dose-corrected exposure relative to a reference, in per cent. The clearance is a measure of how efficiently the substance is removed, as volume per time. Read a high clearance as efficient removal.
